Assay results published in patent US7550587B2, “Photosensitizer and method for production thereof” (priority 2001, dated 2009).

Settings: mouse, in vivo
Protocol: The mice were slaughtered 3 hours after injection (each group consisted of 3 mice). The materials of liver, kidney, spleen, lungs, small intestines, tumor, surrounding muscle tissue as well as from blood, urine, faeces from large intestine weighing 100 mg each were thoroughly homogenised in glass homogenizers supplementing 4 ml of saline solution. For examination of biological fluids (blood, urine) 0,1 ml of each fluid were taken with subsequent dissolution in 4 ml of saline solution. The resulting homogenates were studied on “Perkin-Elmer” spectrofluorimeter (MPF-44A model).

Substance: 13-carboxy-17-[2-carboxyethyl]-15-formyl-17,18-trans-dihydro-3-vinyl-8-ethyl-2,7,12,18-tetramethylporphyrin [purpurin 5]
- time interval of tumour accumulation optimal for photodynamic effect according to selectivity: 3 to 18 h
